# Literature values as cited in patent US9056899B2 (priority 2008, dated 2015).
# Where two headings read alike, the source gives them in different places.
# Legend:
# Details in all cases: cited from earlier work
# [1] = tested on: BW25113 and gene knockouts
# [2] = tested on: BW25113 and gene knockouts from KEIO collection
# [3] = tested on: BW25113 and gene knockouts from KEIO collection; remark: listed apart in the source
compound,measurement,setting,value
gentamicin,MIC Plating,[1]; BW25113 starting strain,0.8 µg/mL
same,MIC Plating,[1]; JW5360 knockout,>0.8 µg/mL
same,MIC Plating,[1]; dapF knockout,0.7 µg/mL
same,MIC Plating,[1]; envC knockout,>0.5 µg/mL
same,MIC Plating,[1]; gpmM knockout,0.7 µg/mL
same,MIC Plating,[1]; hflK knockout,0.5 µg/mL
same,MIC Plating,[1]; rfaC knockout,0.7 µg/mL
same,MIC Plating,[1]; rffA knockout,0.7 µg/mL
same,MIC Plating,[1]; rnt knockout,0.7 µg/mL
same,MIC Plating,[1]; rplI knockout,0.7 µg/mL
same,MIC Plating,[1]; rpmE knockout,0.6 µg/mL
same,MIC Plating,[1]; rpoN knockout,0.5 µg/mL
same,MIC Plating,[1]; sapC knockout,0.5 µg/mL
same,MIC Plating,[1]; secG knockout,0.5 µg/mL
same,MIC Plating,[1]; tatC knockout,0.5 µg/mL
same,MIC Plating,[1]; tolC knockout,0.5 µg/mL
same,MIC Plating,[1]; tusC knockout,0.5 µg/mL
same,MIC Plating,[1]; tusD knockout,0.5 µg/mL
same,MIC Plating,[1]; xapR knockout,>0.5 µg/mL
same,MIC Plating,[1]; yciM knockout,>0.7 µg/mL
same,MIC Plating,[1]; yfgC knockout,>0.5 µg/mL
same,MIC Plating,[1]; yidD knockout,0.5 µg/mL
O=C(O)c1cn(C2CC2)c2cc(N3CCNCC3)c(F)cc2c1=O [Ciprofloxacin],MIC Plating,[2]; BW25113 starting strain,20 ng/mL
same,MIC Plating,[2]; acrA knockout,7.5 ng/mL
same,MIC Plating,[2]; acrB knockout,8 ng/mL
same,MIC Plating,[2]; deoT knockout,7.5 ng/mL
same,MIC Plating,[2]; dksA knockout,10 ng/mL
same,MIC Plating,[2]; fis knockout,>8.75 ng/mL
same,MIC Plating,[2]; hfq knockout,7.5 ng/mL
same,MIC Plating,[2]; hrpA knockout,8.75 ng/mL
same,MIC Plating,[2]; ihfA knockout,7.5 ng/mL
same,MIC Plating,[2]; pgmB knockout,10 ng/mL
same,MIC Plating,[2]; qmcA knockout,>8.75 ng/mL
same,MIC Plating,[2]; recA knockout,>8.75 ng/mL
same,MIC Plating,[2]; recB knockout,7.5 ng/mL
same,MIC Plating,[2]; recC knockout,>8.75 ng/mL
same,MIC Plating,[2]; recG knockout,6 ng/mL
same,MIC Plating,[2]; recN knockout,10 ng/mL
same,MIC Plating,[2]; rimK knockout,>8.75 ng/mL
same,MIC Plating,[2]; rseA knockout,>8.75 ng/mL
same,MIC Plating,[2]; ruvA knockout,10 ng/mL
same,MIC Plating,[2]; ruvC knockout,>8.75 ng/mL
same,MIC Plating,[2]; tolC knockout,5 ng/mL
same,MIC Plating,[2]; uvrD knockout,6 ng/mL
same,MIC Plating,[2]; xseA knockout,6 ng/mL
same,MIC Plating,[2]; xseB knockout,8 ng/mL
same,MIC Plating,[2]; ybgC knockout,7.5 ng/mL
same,MIC Plating,[2]; ybgF knockout,7.5 ng/mL
same,MIC Plating,[2]; ychJ knockout,7.5 ng/mL
same,MIC Plating,[2]; yciM knockout,7.5 ng/mL
same,MIC Plating,[2]; ygcO knockout,7.5 ng/mL
same,MIC Plating,[2]; yjjY knockout,8.75 ng/mL
same,MIC E-Test,[3]; BW25113 starting strain,16 ng/mL
same,MIC E-Test,[3]; fis knockout,6 ng/mL
same,MIC E-Test,[3]; recA knockout,2 ng/mL
same,MIC E-Test,[3]; recC knockout,8 ng/mL
same,MIC E-Test,[3]; recG knockout,6 ng/mL
same,MIC E-Test,[3]; ruvC knockout,8 ng/mL
same,MIC E-Test,[3]; tolC knockout,4 ng/mL
same,MIC E-Test,[3]; uvrD knockout,5 ng/mL
same,MIC E-Test,[3]; xseA knockout,6 ng/mL
